Measured values published in patent US20220008444A1, “COMPOSITIONS FOR USE IN THE PREVENTION OR TREATMENT OF NECROTIZING ENTEROCOLITIS IN INFANTS AND YOUNG CHILDREN” (SOCIÉTÉ DES PRODUITS NESTLÉ S.A., priority 2013, published 2022).

Test system: NFkB
Experiment: NFkB reporter cell line (HT29) stimulated with TNFalpha or gram negative bacterium, in conditioned media
Assay type: cell-based
Conditions: HT29 NFkB reporter cells; cell culture media fermented with Bifidobacterium longum subsp infantis and the substance; stimulation with TNFalpha or S. typhymurium
Experimental: HT29 cells harbouring an expression plasmid with the NFkB promoter controlling an alkaline phosphatase were treated with different media and challenged with the proinflammatory TNFalpha or a gram negative bacterium such as Salmonella typhimurium. Treatments were cell culture media fermented with Bifidobacterium longum subsp infantis and (i) lactose or (ii) Lacto-N-tetraose (LNT).
The cells harbored an expression plasmid with the NF-κB promoter controlling an alkaline phosphatase so that stimulation by TNF-α or a gram negative bacterium would be indicated by fluorescence generated by interaction of the alkaline phosphatase with a fluorogenic substrate. […] This indicates LNT to exert a strong anti-inflammatory effect. Conditioned media with LNT lead to higher resistance of the cells upon proinflammatory TNFalpha or a gram negative bacterial stimulation. Intestinal epithelia cells in media conditioned by LNT (lacto-N-tetraose) and Bifidobacterium fermentation products are more resistant to proinflammatory stimulation by TNFalpha as compared to cells in a control medium conditioned by lactose and Bifidobacterium fermentation products.

SMILES | activation of the inflammation marker nuclear factor kappa B (NFkB)
OC[C@H]1O[C@@H](O[C@H]2[C@H](O)[C@@H](O)C(O)O[C@@H]2CO)[C@H](O)[C@@H](O)[C@H]1O (some centres unmarked) [lactose] | very strong stimulation
CC(=O)N[C@H]1[C@H](O[C@H]2[C@@H](O)[C@@H](CO)O[C@@H](O[C@H]3[C@H](O)[C@@H](O)C(O)O[C@@H]3CO)[C@@H]2O)O[C@H](CO)[C@@H](O)[C@@H]1O[C@@H]1O[C@H](CO)[C@H](O)[C@H](O)[C@H]1O (some centres unmarked) [LNT, lacto-N-tetraose] | no stimulation
